For 15 compounds, TGI results are on record in PubChem BioAssay (NCI).

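These data come from cells grown in 96-well plates and exposed to compound for 48 hours at five concentrations. Definition used: TGI = concentration required for complete inhibition of growth.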 Some results are limits rather than exact numbers.

Some test systems named below: LXFL 529 NSCLC; XF 498 CNS; M19-MEL melanoma; KM20L2 colon; DLD-1 colon; DMS 273 small cell lung; HOP-18 NSCLC; RXF-631 renal.
Common to all, as to experiment: NCI tumour cell line growth inhibition, 48 h

As for `c1ccc(C2[C@@H]3CCCc4ccccc4C3=NN2c2ccccc2)cc1` (some centres undefined), the TGI in the assay on LXFL 529 NSCLC, in the assay with XF 498 CNS, in the assay with M19-MEL melanoma, with KM20L2 colon and with DLD-1 colon was above 100 µM throughout.
Take `C[N+](C)(C)CC1CCCC/C1=N\O` (centres undefined): the TGI in the assay with LXFL 529 NSCLC, in the assay with DMS 273 small cell lung, in the assay with HOP-18 NSCLC, in the assay on KM20L2 colon, with RXF-631 renal and in the assay on DLD-1 colon was above 100 µM throughout.
Take `COC(=O)C1C2CC3C(OC(=O)C31)C2OC(=O)[C@](OC)(c1ccccc1)C(F)(F)F` (some centres undefined): the TGI in the assay on LXFL 529 NSCLC, in the assay with DMS 273 small cell lung, with XF 498 CNS, in the assay with M19-MEL melanoma, with KM20L2 colon and with RXF-631 renal was above 100 µM throughout. Also, the TGI in the assay with DLD-1 colon was above 100 µM.
As for `CC(=O)C1(O)Cc2c(O)c3c(c(O)c2C(OC2CC(N)C(O)C(C)O2)C1)C(=O)c1ccccc1C3=O` (centres undefined), the TGI with LXFL 529 NSCLC was 0.25 µM; in the assay on DMS 273 small cell lung, below 0.0108 µM; in the assay on HOP-18 NSCLC it was 0.0869 µM; with XF 498 CNS, 0.181 µM; in the assay on M19-MEL melanoma it was 0.121 µM; in the assay on KM20L2 colon, 0.203 µM. The TGI in the assay on DLD-1 colon turned out to be 0.498 µM.
`CC(=O)CC(=O)/C=C/c1cccs1`: the TGI in the assay with LXFL 529 NSCLC, in the assay with M19-MEL melanoma, in the assay with KM20L2 colon and with DLD-1 colon was above 100 µM each time.
For the compound `CC(C)(C)OC(=O)N1N=NC2C3OC(CC3=O)C21` (centres undefined), the TGI in the assay on LXFL 529 NSCLC, with DMS 273 small cell lung, in the assay on HOP-18 NSCLC, with KM20L2 colon, in the assay on RXF-631 renal and in the assay with DLD-1 colon was above 100 µM in each case.
For the compound `NC(=O)N/N=C(/c1nc2ccc([N+](=O)[O-])cc2[nH]c1=O)C(O)c1ccco1` (centres undefined), the TGI with LXFL 529 NSCLC was above 100 µM; with DMS 273 small cell lung, above 100 µM; in the assay with XF 498 CNS, above 100 µM; in the assay on M19-MEL melanoma, above 100 µM; in the assay with KM20L2 colon it was 66.4 µM; in the assay on RXF-631 renal, above 100 µM. In the assay with DLD-1 colon, this compound returned a TGI above 100 µM.
Regarding `O=C1NC2(C=Cc3c(ccc4ccccc34)O2)Oc2ccccc21` (centres undefined), the TGI with LXFL 529 NSCLC is 56.4 µM; with DMS 273 small cell lung it was 76.1 µM; in the assay with XF 498 CNS it was above 100 µM; in the assay with M19-MEL melanoma, above 100 µM; in the assay on KM20L2 colon, above 100 µM.
For the compound `CC(C)N(C(C)C)P(OCCC#N)OC1CC(n2cnc3c(=O)[nH]cnc32)OC1COC(=O)NCCCCCCNC(=O)OC(C)(C)c1ccc(-c2ccccc2)cc1` (centres undefined), the TGI was 32.5 µM with LXFL 529 NSCLC; 32.1 µM in the assay on DMS 273 small cell lung; above 100 µM with HOP-18 NSCLC; 42.2 µM with M19-MEL melanoma; above 100 µM in the assay on KM20L2 colon; above 100 µM with DLD-1 colon.
Regarding `CCN(CC)CCNc1ccc2ncn3c4cc(=O)ccc4c(O)c1c23`, the TGI with LXFL 529 NSCLC turned out to be 20.5 µM; in the assay with DMS 273 small cell lung, 13.2 µM; in the assay on XF 498 CNS, 12.8 µM; in the assay on M19-MEL melanoma it was 16.5 µM; with KM20L2 colon it was 16.4 µM; in the assay on RXF-631 renal, 12.5 µM. This compound also yielded a TGI in the assay on DLD-1 colon of 17 µM.
Regarding `COc1ccc(C2C(Cl)C(=O)N2NC(=O)Cc2ccccc2)cc1OC` (centres undefined), the TGI in the assay with DMS 273 small cell lung, with HOP-18 NSCLC, in the assay on XF 498 CNS, with M19-MEL melanoma, with KM20L2 colon and in the assay on DLD-1 colon was above 100 µM each time.
In the case of `CCOC(=O)NC(=O)c1c[nH]c(=O)[nH]c1=O`, the TGI with LXFL 529 NSCLC, in the assay with DMS 273 small cell lung, in the assay on HOP-18 NSCLC, with XF 498 CNS, in the assay with M19-MEL melanoma and in the assay on KM20L2 colon was above 100 µM in each case. In addition, the TGI with RXF-631 renal and in the assay on DLD-1 colon was above 100 µM throughout.
On to `COC[C@@H](Cc1ccc(OC)c(OC)c1)[C@@H](COC)Cc1ccc(OC)c(OC)c1`, for which the TGI in the assay on LXFL 529 NSCLC, in the assay with DMS 273 small cell lung, in the assay on HOP-18 NSCLC, with XF 498 CNS, with M19-MEL melanoma and in the assay on KM20L2 colon was above 100 µM in each case. In addition, the TGI with DLD-1 colon is above 100 µM.
In the case of `N#C/C(=C\c1ccccc1Br)C(=O)c1ccccc1`, the TGI is above 58.3 µM in the assay with LXFL 529 NSCLC; above 100 µM in the assay with DMS 273 small cell lung; above 79.9 µM in the assay on XF 498 CNS; above 89.5 µM in the assay with M19-MEL melanoma; above 100 µM with KM20L2 colon; above 100 µM in the assay on RXF-631 renal.
For `O=C1C[C@H](c2ccc(O)c(O)c2)Oc2cc(O)cc(O)c21`, the TGI with LXFL 529 NSCLC, with DMS 273 small cell lung, in the assay on HOP-18 NSCLC, with M19-MEL melanoma, with KM20L2 colon and in the assay with RXF-631 renal was above 100 µM each time. In the assay with DLD-1 colon, this compound showed a TGI above 100 µM.
